# Test results: the METLIN SMRT retention time set (Domingo-Almenara et al. 2019)
# Assay: gradient 5% acetonitrile 3 min, to 50% in 2 min, to 85% in 15 min, held 3 min, 100 µL/min
# Details: column: Zorbax Extend-C18 2.1 x 50 mm; eluents: water / acetonitrile, 0.1% formic acid
# Method in brief: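 Retention time was recorded from adduct peaks, which were picked computationally and each inspected manually. Pure standards ran in mixtures of ~100 molecules on HPLC coupled to a quadrupole time-of-flight mass spectrometer, in positive and negative ionization mode, through a Zorbax Extend-C18 column (2.1 × 50 mm, 1.8 μm) at 100 μL/min. Eluents were water and acetonitrile, each with 0.1% formic acid.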
row,RP-LC retention time [s],Compound
1,960,Cc1cccc(NC(=O)C2CCCN(c3ccc(=O)n(-c4cccc(Cl)c4)n3)C2)c1C (centres undefined)
2,1040,Cc1sc(NC(=O)c2ccc(Br)cc2)nc1-c1ccc2c(c1)NC(=O)C(C)O2 (centres undefined)
3,975,CCOC(=O)c1ccc(NC(=O)C2CCCN(S(=O)(=O)c3cc(OC)ccc3OC)C2)cc1 (centres undefined)
4,752,O=C1CC(c2ccc(Cl)cc2)Cc2nc(N3CCN(c4ccccn4)CC3)ncc21 (centres undefined)
5,721,CCCc1nnc(NC(=O)C2CCN(C(=O)c3ccc(F)cc3)CC2)s1
6,786,O=C(CCn1cnc2cc(-c3noc(COc4ccc(Cl)cc4)n3)ccc21)N1CCCC1
7,752,COc1ccc(N2CC(c3nc(-c4ccncc4)no3)CC2=O)cc1Cl (centres undefined)
8,596,CC(C)n1c(=O)c(NCc2ccccc2Cl)nc2ccncc21
9,601,Cn1c(CCNC(=O)c2cccc(C#N)c2)nc2cccnc21
10,888,Cn1c(=O)c(N2CCC(NC(=O)Nc3ccc(F)cc3F)CC2)nc2ccccc21
11,892,Cc1ccc(C)c(S(=O)(=O)N2CC[C@H](n3c(=O)n(C)c4cccnc43)C2)c1
12,827,Cc1ccc(N2CCC(NC(=O)Cc3cccs3)C2=O)cc1 (centres undefined)
13,704,CSc1ccc(CNC(=O)C2CCCN(c3cc(=O)n(C)c(=O)n3C)C2)cc1 (centres undefined)
14,677,Cc1cc(SCC(=O)N2CCCc3ccccc32)nc(=O)[nH]1
15,612,Cc1cccc(NC(=O)c2ccc(N3CCCC3)nn2)n1
16,712,COc1ccc(Cl)cc1S(=O)(=O)N1CCc2nn(C)c(=O)n2CC1

row,RP-LC retention time [s],Compound
1,652,COc1ccc(C2CC(=O)N(c3ccc(C)c(Cl)c3)C(=O)C2)cc1OC
2,903,Cn1nc(C(=O)Nc2ccccc2)c2c1CCN(C(=O)Nc1ccccc1Br)C2
3,967,Cc1cc2nn(CC(=O)Nc3ccccc3F)c(=O)n2c(Nc2ccc(F)cc2)n1
4,603,COc1ccc(NC(=O)N2CCc3c(C(=O)NC4CCN(C)CC4)cccc32)cc1
5,679,COc1ccc(CC(=O)NCCc2cn(C)c3ncccc23)cc1Cl
6,612,O=C1Nc2cc(C(=O)N3CCN(Cc4ccccc4)CC3)ccc2N2CCCCC12 (centres undefined)
7,790,CC1CN(c2ccc(Cl)cc2)c2nc3c(c(=O)n(CC(=O)O)c(=O)n3C)n2C1 (centres undefined)
8,816,COc1ccc(OC)c(S(=O)(=O)N2CC(c3nc(-c4ccsc4)nn3C)C2)c1
9,774,O=C(c1ccoc1)N1CCN(c2cc(-c3ccc(Cl)cc3)[nH]n2)CC1
10,668,CN1C(=O)c2cccn2CC1CNS(=O)(=O)c1ccccc1 (centres undefined)
11,1210,CC1CCN(c2nn(CC(=O)Nc3cccc(Cl)c3)c(=O)c3ccccc23)CC1
12,667,CC(C)c1nnc2n1CCN(C(=O)COc1cccc(Cl)c1)C2
13,637,Cc1nc(Nc2ccc(Cl)cn2)sc1C(=O)NCCN1CCCCC1
14,1100,CC(C)c1noc(C2(NC(=O)c3ccc(Cl)cc3)CCCCC2)n1
15,747,COC(=O)C1=CN(c2ccc(C(=O)OC)cc2)c2ccccc2S1(=O)=O
16,665,CCN1CCN(c2nc3cc(C(=O)OC)ccc3c(=O)n2-c2cccc(Cl)c2)CC1

# Continued, compound first:
row,Compound,RP-LC retention time [s]
1,COc1cccc(CNC2=NCCNC23CCN(S(=O)(=O)c2ccc4c(c2)CCCC4)CC3)c1,822
2,O=C(Nc1cnc2ccccc2c1)c1cccc([N+](=O)[O-])c1,717
3,CC(=O)N1CCCC(C(=O)N2CCOCC2)C1 (centres undefined),554
4,CSc1ccc(-c2nc3ccccn3c2NC2CCCCC2)cc1,802
5,O=C(NCCN1CCCCCC1)c1nc(-c2ccnc(N3CCCCC3)c2)no1,577
6,CCN(CC)c1ncc2c(n1)CCC(C(=O)Nc1ccc(OC)c(F)c1)C2 (centres undefined),726
7,O=C(Nc1ccc(-c2nc(-c3ccc(F)cc3)no2)cc1)c1ccco1,1100
8,CCNC(=O)C1CCN(S(C)(=O)=O)c2cc(C)ccc2O1 (centres undefined),696
9,Clc1ccccc1N1CCN(Cc2nnc(-c3ccccc3)o2)CC1,768
10,Cc1ccc(-c2ncccc2CNS(=O)(=O)c2ccc(C)cc2)cc1,684
11,Nc1ccc2c3c(cccc13)C(=O)NC2=O,657
12,CCN(Cc1ccccc1)C(=O)Cn1cnc(C)cc1=O,624
13,Cc1cccc(S(=O)(=O)Nc2ccc3c(c2)CCC(=O)N3CC(C)C)c1,896
14,COc1ccccc1N1CCN(c2cc(SCC(=O)Nc3ccc(F)cc3)ncn2)CC1,941
15,CCOC(=O)c1sc2nc(C)cc(C(F)(F)F)c2c1N,1130
16,Cc1ccccc1CNC(=O)Cc1csc2nc(-c3ccccc3)cn12,792
17,Cc1nc2cc(-c3noc(COc4ccccc4C)n3)ccc2o1,1100
18,CC(C)CCN1CCC(N2CCN(C(=O)C3CCCC3)CC2)C1=O (centres undefined),585
19,COc1ccc(-c2nc3cccnc3n2C2CCN(C(=O)NC3CCCC3)C2)cc1 (centres undefined),879

row,Compound,RP-LC retention time [s]
1,CCc1ccc(Oc2cc(N3CCC(C(=O)NCCCOC(C)C)CC3)ncn2)cc1,903
2,Cc1nnc(-c2coc(S(=O)(=O)N3CCCCCC3)c2)o1,824
3,CCc1cc(C2CCCN2C(=O)Cc2ccccc2F)on1 (centres undefined),777
4,Cc1sc(C)c(S(=O)(=O)N2CCN(c3ccccc3F)CC2)c1-c1cc(C(F)(F)F)on1,1330
5,CCCc1noc(-c2ccnc(-n3cnc(C(=O)N4CCOCC4)c3)c2)n1,747
6,ClCC(CNCc1ccccc1)c1ccccc1 (centres undefined),723
7,CCC(=O)NCC12CCC=C1N(C)C(=O)CC2 (centres undefined),616
8,COCCNC(=O)c1sc2c(cnc3cc4c(cc32)OCO4)c1-c1ccccc1,732
9,C=C1C(=O)O[C@@H]2/C=C(\C)CCC=C(C)CC[C@@H]12,1090
10,Cc1noc(C)c1S(=O)(=O)N1CCC(c2noc(-c3ccncc3)n2)C1 (centres undefined),789
11,O=C(CCC1CCCC1)Nc1nc(-c2ccc(F)cc2)cs1,1210
12,COCCNc1oc(-c2ccc([N+](=O)[O-])cc2)nc1C#N,766
13,CCCOc1nccnc1NC1CCN(C(=O)c2ccn(CC)n2)CC1,722
14,O=C(C1CCN(c2cnc3nccnc3c2)CC1)N1CCC(Cc2ccccc2)CC1,889
15,CS(=O)(=O)N1CCCc2cc(C(=O)NCc3ccccn3)ccc21,607
16,COc1cc(-c2noc(-c3nc(-c4ccc(C)cc4)no3)n2)cc(OC)c1OC,1260
17,Cc1cc(NC(C)C)n2nc(-c3ccc(C(C)(C)C)cc3)nc2n1,988
18,CCC(C)C(NC(=O)c1ccc(C(C)C)cc1)C(=O)Nc1nc2ccccc2[nH]1 (centres undefined),856
